Measurements from ChEMBL document CHEMBL1130820, “Search for alpha 1-adrenoceptor subtypes selective antagonists: design, synthesis and biological activity of cystazosin, an alpha 1D-adrenoceptor antagonist” (Bioorg Med Chem Lett, 1998).

Key:
[1] = target: T1, 5-hydroxytryptamine receptor 1A (Homo sapiens, UniProt P08908); test: Antagonistic affinity against cloned human 5-hydroxytryptamine 1A receptor; assay type: functional
T1 sequence (P08908 whole entry): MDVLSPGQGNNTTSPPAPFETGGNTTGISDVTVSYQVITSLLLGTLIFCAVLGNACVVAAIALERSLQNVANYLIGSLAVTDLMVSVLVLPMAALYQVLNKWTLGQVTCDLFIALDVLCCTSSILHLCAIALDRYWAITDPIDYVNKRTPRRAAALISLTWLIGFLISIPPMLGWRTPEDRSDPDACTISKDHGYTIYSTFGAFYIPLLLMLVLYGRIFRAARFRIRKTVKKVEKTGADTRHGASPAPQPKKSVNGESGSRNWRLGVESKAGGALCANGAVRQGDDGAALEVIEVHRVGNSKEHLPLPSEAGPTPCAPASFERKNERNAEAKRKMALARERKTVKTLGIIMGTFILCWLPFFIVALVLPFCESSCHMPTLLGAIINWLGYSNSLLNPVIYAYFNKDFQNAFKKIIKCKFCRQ

[2] = target: T2, Adrenergic receptor alpha-2 (Rattus norvegicus, UniProt P22086+P19328+P22909); test: Antagonistic affinity against native rat cortex Alpha-2 adrenergic receptor; assay type: functional, tissue-based
T2 sequence (P22086 whole entry): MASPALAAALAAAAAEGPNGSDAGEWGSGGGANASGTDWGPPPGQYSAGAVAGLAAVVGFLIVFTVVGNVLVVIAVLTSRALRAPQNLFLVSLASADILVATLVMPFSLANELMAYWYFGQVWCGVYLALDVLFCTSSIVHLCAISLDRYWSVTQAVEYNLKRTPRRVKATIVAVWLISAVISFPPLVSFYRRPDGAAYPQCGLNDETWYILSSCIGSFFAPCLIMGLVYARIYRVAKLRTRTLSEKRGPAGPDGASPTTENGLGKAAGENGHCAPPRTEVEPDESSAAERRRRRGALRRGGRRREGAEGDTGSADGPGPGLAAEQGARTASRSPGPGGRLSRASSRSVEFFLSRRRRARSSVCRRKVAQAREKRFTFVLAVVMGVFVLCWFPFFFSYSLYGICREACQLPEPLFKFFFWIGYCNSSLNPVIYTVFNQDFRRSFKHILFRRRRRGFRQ
T2 sequence (P19328 whole entry): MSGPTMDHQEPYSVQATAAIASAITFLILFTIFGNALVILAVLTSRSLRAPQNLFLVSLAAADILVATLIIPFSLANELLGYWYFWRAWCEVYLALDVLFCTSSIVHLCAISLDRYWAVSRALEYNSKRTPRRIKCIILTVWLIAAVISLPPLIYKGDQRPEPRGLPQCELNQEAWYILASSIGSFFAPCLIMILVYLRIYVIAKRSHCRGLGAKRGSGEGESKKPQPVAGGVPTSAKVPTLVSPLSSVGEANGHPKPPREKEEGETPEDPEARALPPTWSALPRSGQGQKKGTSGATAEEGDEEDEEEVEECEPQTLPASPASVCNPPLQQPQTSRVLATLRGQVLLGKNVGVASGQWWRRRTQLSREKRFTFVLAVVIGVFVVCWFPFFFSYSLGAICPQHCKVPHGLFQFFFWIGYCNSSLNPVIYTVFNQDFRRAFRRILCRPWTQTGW
T2 sequence (P22909 whole entry): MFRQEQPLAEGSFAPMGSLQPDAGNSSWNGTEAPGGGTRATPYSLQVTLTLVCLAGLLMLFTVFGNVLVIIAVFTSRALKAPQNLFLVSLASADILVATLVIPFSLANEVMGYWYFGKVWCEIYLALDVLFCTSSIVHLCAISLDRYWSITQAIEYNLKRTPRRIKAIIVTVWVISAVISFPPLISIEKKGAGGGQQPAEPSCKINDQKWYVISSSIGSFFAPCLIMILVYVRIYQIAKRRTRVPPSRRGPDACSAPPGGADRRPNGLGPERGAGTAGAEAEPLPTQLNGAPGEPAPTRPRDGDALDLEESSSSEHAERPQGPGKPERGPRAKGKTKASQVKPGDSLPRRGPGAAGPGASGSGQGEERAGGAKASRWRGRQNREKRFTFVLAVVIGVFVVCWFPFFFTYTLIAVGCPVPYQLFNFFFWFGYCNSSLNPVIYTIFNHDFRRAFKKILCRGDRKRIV

[3] = target: T3, Alpha-1A adrenergic receptor (Rattus norvegicus, UniProt P43140); test: Antagonistic affinity against Alpha-1A adrenergic receptor was determined in isolated prostatic vas deferens tissue from rat; assay type: functional, tissue-based; conditions: read-out: pA2 (converted)
T3 sequence (P43140 whole entry): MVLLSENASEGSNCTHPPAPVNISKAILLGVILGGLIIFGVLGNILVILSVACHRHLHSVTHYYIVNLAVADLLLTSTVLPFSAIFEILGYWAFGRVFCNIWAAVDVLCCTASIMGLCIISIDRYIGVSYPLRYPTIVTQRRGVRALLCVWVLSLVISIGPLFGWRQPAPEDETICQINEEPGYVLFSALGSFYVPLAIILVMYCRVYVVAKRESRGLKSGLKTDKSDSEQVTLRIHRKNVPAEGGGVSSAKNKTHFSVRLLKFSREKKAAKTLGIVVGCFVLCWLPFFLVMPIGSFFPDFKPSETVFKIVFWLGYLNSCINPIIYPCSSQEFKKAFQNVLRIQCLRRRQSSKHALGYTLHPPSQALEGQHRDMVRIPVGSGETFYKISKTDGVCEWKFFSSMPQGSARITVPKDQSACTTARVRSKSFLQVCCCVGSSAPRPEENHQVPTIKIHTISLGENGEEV

[4] = target: T4, Alpha-1D adrenergic receptor (Rattus norvegicus, UniProt P23944); test: Antagonistic affinity against Alpha-1D adrenergic receptor was determined in isolated thoracic aorta from rat; assay type: functional, tissue-based; conditions: read-out: pA2 (converted)
T4 sequence (P23944 whole entry): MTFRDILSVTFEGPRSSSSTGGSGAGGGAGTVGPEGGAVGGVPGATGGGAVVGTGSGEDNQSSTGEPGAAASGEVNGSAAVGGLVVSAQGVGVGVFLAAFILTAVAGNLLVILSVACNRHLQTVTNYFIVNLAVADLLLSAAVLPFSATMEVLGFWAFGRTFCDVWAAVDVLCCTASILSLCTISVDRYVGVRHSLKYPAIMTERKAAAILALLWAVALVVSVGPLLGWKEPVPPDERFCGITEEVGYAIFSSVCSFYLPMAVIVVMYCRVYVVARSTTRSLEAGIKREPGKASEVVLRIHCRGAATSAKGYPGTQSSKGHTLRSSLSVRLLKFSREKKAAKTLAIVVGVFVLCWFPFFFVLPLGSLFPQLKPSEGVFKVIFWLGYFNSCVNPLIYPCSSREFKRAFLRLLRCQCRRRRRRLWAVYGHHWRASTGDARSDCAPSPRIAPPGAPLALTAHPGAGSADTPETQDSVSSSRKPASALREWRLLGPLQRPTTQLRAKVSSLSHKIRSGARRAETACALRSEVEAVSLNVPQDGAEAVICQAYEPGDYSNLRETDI

[5] = target: T5, Alpha-1B adrenergic receptor (Rattus norvegicus, UniProt P15823); test: Antagonistic affinity against Alpha-1B adrenergic receptor was determined in isolated spleen tissue from rat; assay type: functional, tissue-based; conditions: read-out: pA2 (converted)
T5 sequence (P15823 whole entry): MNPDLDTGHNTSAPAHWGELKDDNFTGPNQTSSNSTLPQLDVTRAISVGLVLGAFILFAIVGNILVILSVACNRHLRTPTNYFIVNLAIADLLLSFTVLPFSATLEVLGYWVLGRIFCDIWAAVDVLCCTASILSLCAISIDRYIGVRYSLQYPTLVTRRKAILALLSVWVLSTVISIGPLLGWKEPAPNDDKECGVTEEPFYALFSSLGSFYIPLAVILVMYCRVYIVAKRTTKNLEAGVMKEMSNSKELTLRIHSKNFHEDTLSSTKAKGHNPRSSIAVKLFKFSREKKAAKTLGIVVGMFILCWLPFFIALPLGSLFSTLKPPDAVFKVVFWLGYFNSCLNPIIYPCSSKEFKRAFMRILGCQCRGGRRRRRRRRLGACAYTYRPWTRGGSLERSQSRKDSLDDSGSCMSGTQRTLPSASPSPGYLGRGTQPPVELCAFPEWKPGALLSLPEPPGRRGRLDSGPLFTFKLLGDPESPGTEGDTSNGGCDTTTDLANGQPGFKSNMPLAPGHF

[6] = target: D(2) dopamine receptor (Rattus norvegicus, UniProt P61169); test: Antagonistic affinity against rat striatum Dopamine receptor D2; assay type: functional, tissue-based
D(2) dopamine receptor, sequence (P61169 whole entry): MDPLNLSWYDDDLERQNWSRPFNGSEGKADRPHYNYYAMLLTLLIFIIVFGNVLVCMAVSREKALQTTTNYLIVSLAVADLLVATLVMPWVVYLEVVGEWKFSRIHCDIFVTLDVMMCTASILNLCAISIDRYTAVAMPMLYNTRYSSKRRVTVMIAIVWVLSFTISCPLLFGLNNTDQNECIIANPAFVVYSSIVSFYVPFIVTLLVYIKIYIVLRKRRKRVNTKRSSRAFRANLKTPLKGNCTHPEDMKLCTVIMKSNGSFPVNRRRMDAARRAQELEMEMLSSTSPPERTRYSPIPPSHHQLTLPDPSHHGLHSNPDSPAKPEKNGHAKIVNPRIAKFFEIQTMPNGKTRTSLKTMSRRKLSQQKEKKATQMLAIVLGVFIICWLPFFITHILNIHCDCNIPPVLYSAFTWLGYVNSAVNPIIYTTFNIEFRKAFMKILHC

| Compound | Ki [1] [nM] | Log Ki [2] | Kb [3] [nM] | Kb [4] [nM] | Kb [5] [nM] | Ki [6] [nM] |
| --- | --- | --- | --- | --- | --- | --- |
| COc1cc2nc(N(C)CCCCCCN(C)C(=O)c3ccco3)nc(N)c2cc1OC | > 1000 | -7 | 0.912 | 0.646 | 0.145 | 2340 |
| COc1cc2nc(N(C)CCSSCCN(C)C(=O)c3ccco3)nc(N)c2cc1OC | > 1000 | -6.23 | 29.5 | 2.88 | 32.4 | – |
| COc1cc2nc(N3CCN(C(=O)c4ccco4)CC3)nc(N)c2cc1OC [PRAZOSIN] | – | – | – | – | – | > 10000 |
| COc1ccccc1N1CCN(CCN2C(=O)CC3(CCCC3)CC2=O)CC1.Cl.Cl | 1.74 | -5.98 | – | – | 28.2 | 47.9 |

Further lines, results first:

| Ki [1] [nM] | Log Ki [2] | Kb [3] [nM] | Kb [4] [nM] | Kb [5] [nM] | Ki [6] [nM] | Compound |
| --- | --- | --- | --- | --- | --- | --- |
| > 1000 | -6.13 | 33.1 | – | – | 8320 | COc1cc2nc(N3CCN(C(=O)c4ccco4)[C@H]4CCCC[C@H]43)nc(N)c2cc1OC [CYCLAZOSIN] |
| – | – | 1780 | 45.7 | 115 | – | COc1cc2nc(NCCSSCCNC(=O)c3ccco3)nc(N)c2cc1OC |
